# Measured values published in patent US7892755B2, “Screening method” (Takeda Pharmaceutical Company Limited, priority 2004, dated 2011).
# Key:
# Type in all cases: cell-based
# [1] = molecular target: T1, GPR35 (Homo sapiens, UniProt Q9HC97, S294R); assay: Changes in intracellular calcium levels on FLIPR, CHO-K1 cells transiently co-expressing GPR35 and Gα15; design: The resulting fragment (ca. 1 kb) was introduced into vector pAKKO-111; expressed in transfected cells; host or cells: CHO-K1 (ATCC), transient transfection; settings: Fluo-3AM, 0.3-10 μM shown for DNQX and ellagic acid (FIG. 1, 2)
# T1 sequence (Q9HC97 whole entry S294R, the tested form may be a part): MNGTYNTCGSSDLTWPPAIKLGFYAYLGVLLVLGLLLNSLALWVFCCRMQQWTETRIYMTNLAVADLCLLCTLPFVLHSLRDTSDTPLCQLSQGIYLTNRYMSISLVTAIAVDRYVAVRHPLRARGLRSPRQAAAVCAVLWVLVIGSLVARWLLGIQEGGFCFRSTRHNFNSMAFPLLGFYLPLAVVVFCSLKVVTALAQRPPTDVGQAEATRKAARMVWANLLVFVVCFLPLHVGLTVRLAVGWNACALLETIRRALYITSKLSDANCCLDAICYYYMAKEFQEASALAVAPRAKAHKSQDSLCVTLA
# Description: (§1) The CHO-K1 cell line (purchased from ATCC) was incubated in HAM F-12 medium (Invitrogen) supplemented with 10% fetal calf serum, unless otherwise indicated. On the day before transfection, the cells were inoculated at 4.5×10^5/10 cm^2 and incubated at 37° C. for 15 hours or more in a CO2 incubator adjusted to 5% CO2 concentration. Using Lipofectamine reagent (Invitrogen), transfection was performed according to modifications of the procedure attached to the reagent. When a 6-well plate was used as the incubator, the transfection was performed as follows. Two tubes each having a 1.5 ml volume were prepared and 100 μl each of Opti-MEM medium (Invitrogen) was dispensed in each tube. Next, 1 μg of the GPR35 expression vector obtained in REFERENCE EXAMPLE 1 and 0.5 μg of Gα15 expression vector (Guthrie cDNA Resource Center) were incorporated into one tube and in another tube, 6 μl of Lipofectamine reagent was charged, which were then mixed together. The mixture was settled for 20 minutes at room temperature. To the solution, 800 μl of Opti-MEM medium was added and the resulting solution mixture for transfection was added to the CHO-K1 cells, which had been previously washed with Opti-MEM medium. The cells were then incubated in a CO2 incubator for 6 hours. After the incubation, the cells were rinsed with PBS (Invitrogen), then detached by 0.05% trypsin-EDTA solution (Invitrogen) and recovered by centrifugal operation. The cells obtained were counted and diluted to 5×10^4 cells per 100 μl of the medium. The dilution was dispensed to a black walled 96-well plate (Costar) at 100 μl per well, followed by incubation overnight in a CO2 incubator. Various test samples were added to the CHO-K1 cells, in which the receptor was transiently expressed, by the transfection procedure described above, whereby changes in intracellular calcium levels were assayed on a FLIPR (Molecular Device).
# (§2) To assay the changes in intracellular calcium levels on FLIPR, the following pretreatment was made. First, an assay buffer was prepared to add fluorescence dye Fluo-3AM (DOJIN) to the cells, or to wash the cells immediately before the FLIPR assay. A solution was prepared by adding 20 ml of 1M HEPES (pH 7.4) (DOJIN) to 1000 ml of HBSS (Invitrogen) (hereinafter HBSS/HEPES solution). To the solution, there was added 10 ml of a solution obtained by dissolving 710 mg of Probenecid (Sigma) in 5 ml of 1N NaOH and further adding 5 ml of HBSS/HEPES solution thereto and mixing them. The resulting solution was used as an assay buffer. Next, 50 μg of Fluo-3AM was dissolved in 21 μl of DMSO (DOJIN), and an equal volume of 20% pluronic acid (Molecular Probes) was added to the solution. After mixing them, the mixture was added to 10.6 ml of an assay buffer supplemented with 105 μl of fetal calf serum to give a fluorescence dye solution. After the medium for the transfected CHO-K1 cells was removed, the fluorescence dye solution was immediately dispensed at 100 μl each per well and incubation was carried out in a CO2 incubator for an hour to take up the fluorescence dye into the cells. The incubated cells were washed with the assay buffer described above and set on FLIPR. Test samples to be added to the receptor-expressed CHO-K1 cells were prepared using the assay buffer and simultaneously set on FLIPR.
# After the pretreatment described above was made, changes in intracellular calcium levels by the addition of various test samples were assayed on FLIPR.
# [2] = molecular target: T1, GPR35; assay: Changes in intracellular calcium levels on FLIPR, CHO cell line stably co-expressing human GPR35 and Gα16; design: expressed in transfected cells
# Description: The Gα16-stably expressed cell line (Gα16/CHO cell line) as a host cell was prepared by transfecting the Gα16 expression vector (Guthrie cDNA Resource Center) into CHO cells in a conventional manner and incubating at 37° C. under 5% CO2 in αMEM medium (containing nucleic acid; Invitrogen) supplemented with 10% fetal calf serum (Invitrogen), 50 units/ml penicillin/50 ug/ml streptomycin (CAMBREX) and 1 mg/ml geneticin (Invitrogen). The cells that were incubated for 2 days in αMEM medium (containing nucleic acid) supplemented only with 10% fetal calf serum charged in a 75 cm^2 flask were used for the transfection. The transfection was carried out using Lipofectamine reagent (Invitrogen) by a modification of the protocol attached to the reagent. First, 2 centrifuge tubes each having a 15 ml volume were prepared and 600 μl each of Opti-MEM medium (Invitrogen) was dispensed in each tube. Next, 4.8 μg of the expression vector was charged in one tube and in another tube 36 μl of Lipofectamine reagent was charged, which were mixed together. The mixture was settled for 20 minutes at room temperature. […] The cells obtained were counted and diluted with αMEM medium (containing no nucleic acid; Invitrogen) supplemented only with 10% dialyzed fetal calf serum to have 0.3, 1.5 and 7.5 cells per 100 μl of the medium. […]
# [3] = tested on: control CHO-K1 cells; assay: Changes in intracellular calcium levels on FLIPR, control CHO-K1 cells with only expression vector pAKKO-111H
# Description: as §1, §2
# After the pretreatment described above was made, changes in intracellular calcium levels by the addition of various test samples were assayed on FLIPR. […]
smiles,measurement,setting,value
"O=C1N=c2cc([N+](=O)[O-])c([N+](=O)[O-])cc2=NC1=O [DNQX, 6,7-dinitroquinoxaline-2,3-dione]",response (increased intracellular calcium levels),[1],dose-dependently responded (increased intracellular calcium levels)
same,intracellular calcium levels,[2],increased
same,response (increased intracellular calcium levels) in control cells,[3],not observed
"NS(=O)(=O)c1cccc2c3c(cc([N+](=O)[O-])c12)=NC(=O)C(=O)N=3 [NBQX, 6-nitro-7-sulfamoylbenzo[f]quinoxaline-2,3-dione]",response (increased intracellular calcium levels),[1],dose-dependently responded (increased intracellular calcium levels)
same,response (increased intracellular calcium levels) in control cells,[3],not observed
